Tested on: human mammary carcinoma of the MCF-7 line
Assay: Inhibition of the growth of a human mammary carcinoma in the mouse model
Type: in vivo, Balb/c nu/nu-mice
Procedure: 2×6 female Balb/c nu/nu-mice (Bomholtgard, oestrogen-stimulated with 5 mg of oestradiol in a perforated plastics tube "Silastic®" (Dow Chemical, Michigan, USA)) are implanted with tumours by subcutaneous transplantation of fragments of human mammary carcinoma (about 25 mg) of the MCF-7 line (American Type Culture Collection, Maryland, USA; see H. D. Soule et al., J. Nat. Cancer Inst. 51, 1409-1416 (1973)). After the tumours have grown to a volume of about 30 to 100 mm^3 (after 13 days), 6 mice (test group) are each given twice dally over a period of 25 days a dose of 50 mg/kg of Boc-Phe[C]Phe-(L)-Val-(L)-Phe-morpholin-4-ylamide (dissolved in a concentration of 2 mg/ml in a 5% solution of dimethyl sulfoxide and 20% hydroxypropyl-β-cyclodextrin in water, prepared by dissolution of the test compound in dimethyl sulfoxide and dilution with aqueous hydroxypropyl-β-cyclodextrin solution). […] After 25 days (50 administrations) the following tumour volumes (mean value) are determined:
The tumour growth is determined by measuring the diameter along the longitudinal axis of the tumour (L) and perpendicular thereto (D) (in a living animal by means of a calliper gauge). The tumour volumes are calculated in accordance with the formula π×L×D^2 /6 (Evans, B. D., et al., Brit. J. Cancer 45, 466-468 (1982)).

Boc-Phe[C]Phe-(L)-Val-(L)-Phe-morpholin-4-ylamide
tumour growth in comparison with the control group (MCF-7 tumours in female Balb/c nu/nu-mice, 50 mg/kg orally twice daily for 25 days): marked reduction in tumour growth
tumour volume (mean value) (subcutaneous MCF-7 tumour fragments in oestrogen-stimulated female Balb/c nu/nu-mice, 50 mg/kg orally twice daily, after 25 days (50 administrations), placebo control 0.96 cm^3): 0.30 cm^3
